The record followed here is patent publication US5389687A, “Ring-substituted 2-amino-1,2,3,4-tetra-hydronaphthalenes” (Eli Lilly and Company, priority 1991, dated 1995).

“And” between values parts separate entries of the source, which are not always exact repeats. Equal values may be shown once. Read-outs that look alike come from different tables or passages of the source.

For assay [1], the system named is conscious spontaneous hypertensive rats (SHR). As to the kind of experiment: Effect on blood pressure after i.v. administration to conscious SHR. The format is in vivo. The settings on record: Rattus norvegicus, iv, i.v., conscious SHR, read-out: Blood Pressure ED25 (i.v. dose required to decrease pressure 25%). How it is done: (§1) The compounds of this invention are also effective in reducing blood pressure. The blood pressure lowering effect of the compounds of this invention was determined in conscious spontaneous hypertensive rats (SHR; 325-425 g). The rats were anesthetized with halothane (2% in nitrous oxide and oxygen) and were implanted with femoral arterial and venous catheters. The tips of arterial and venous catheters-were positioned in the abdominal aorta below the renal arteries and lower abdominal vena cava, respectively. The catheters were routed subcutaneously to an exit point at the base of the skull and then through a small leather harness fastened around the forequarters of each animal. The animals were allowed a 3- to 4-day recovery period after surgery. On the day before an experiment, each rat was conditioned to the experimental surroundings for 6 hours. On the day of the experiment, the harness on the back of each animal was connected to a spring tether through which arterial and venous extension tubing was routed. The other end of the tubing was connected to a water tight swivel. This system permitted direct recording of blood pressure in conscious free moving animals. Mean arterial blood pressure was measured via a Statham strain gauge transducer (P23DB, Statham Instruments, Oxnard, Calif.) and recorded on a multichannel oscillograph (Beckman Model R611, Beckman Instruments, Palo Alto, Calif.). A minimum 30-minute equilibration period was observed prior to the experimental protocol during which time the animals preened and blood pressure was quite labile. Afterward, the animals appeared to sleep and pressure was stable. Following a control blood pressure measurement, rats were dosed with the compound or vehicle i.v., and pressure was monitored at various time intervals thereafter.
(§2) ^1 Standard protocol recorded the blood pressure and heart rate
(§3) responses after 0.3, 1.0 and 3.0 mg/kg i.v. Dose response curves were
(§4) plotted using the % change in pressure from pretreatment control values a
(§5) 15 and 30 minutes after treatment.
(§6) Corr = correlation coefficient for the linear relationship between the lo
(§7) dose(s) and % change (y) in pressure. Values of 1.0 = perfect correlation
(§8) Pos = Positive slope of dose response
ED25 = i.v. dose required to decrease pressure 25%

The next assay deals with T1, 5HT1a receptors (Rattus norvegicus, UniProt P19327).
T1 construct: synaptosomal membranes isolated from cerebral cortex; from tissue; host or cells: rat cerebral cortex, crude synaptosomal membranes (Male Sprague-Dawley rats from Harlan Industries)
T1 sequence (P19327 1-422): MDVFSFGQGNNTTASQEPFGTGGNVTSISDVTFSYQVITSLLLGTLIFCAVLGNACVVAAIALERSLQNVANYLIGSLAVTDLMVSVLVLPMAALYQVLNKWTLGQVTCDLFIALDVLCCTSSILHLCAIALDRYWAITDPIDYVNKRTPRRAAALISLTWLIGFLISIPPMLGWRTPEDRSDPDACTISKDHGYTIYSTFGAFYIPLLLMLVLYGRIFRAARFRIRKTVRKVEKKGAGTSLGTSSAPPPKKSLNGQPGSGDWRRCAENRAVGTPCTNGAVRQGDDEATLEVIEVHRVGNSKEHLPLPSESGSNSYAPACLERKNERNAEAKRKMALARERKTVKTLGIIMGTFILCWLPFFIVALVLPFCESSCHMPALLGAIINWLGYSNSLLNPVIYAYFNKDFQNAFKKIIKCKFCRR
As to the kind of experiment: Binding at 5HT1a receptors in vitro (inhibition of 3H-8-OH-DPAT binding to synaptosomal membranes from cerebral cortex). More on the design: species or system Male Sprague-Dawley rats. Conditions: IC50 5HT1a, 0.4 nM 3H-8-OH-DPAT, 37° C., 10 min, pH 7.4, several values in a cell are separate determinations. On the procedure: This general procedure is set forth in Wong et al., J. Neural Transm. 71:207-218 (1988).
Male Sprague-Dawley rats (110-150 g) from Harlan Industries (Cumberland, Ind.) were fed a Purina Chow ad libitum for at least 3 days before being used in the studies. Rats were killed by decapitation. The brains were rapidly removed, and the cerebral cortices were dissected out at 4° C.
Brain tissues were homogenized in 0.32 M sucrose. After centrifugation at 1000×g for 10 min and then at 17000×g for 20 min, a crude synaptosomal fraction was sedimented. The pellet was suspended in 100 vol of 50 mM Tris-HCl, pH 7.4, incubated at 37° C. for 10 min, and centrifuged at 50000×g for 10 min. The process was repeated and the final pellet was suspended in ice-chilled 50 mM Tris-HCl, pH 7.4. By the radio-ligand binding method, sites specifically labeled by tritiated 8-hydroxy-2-dipropylamino-1,2,3,4-tetrahydronaphthalene ([…]) have been identified as 5HT-1a receptors.
Binding of (^3 H-8-OH-DPAT) was performed according to the previously described method [Wong et al., J. Neural Transm. 64:251-269 (1985)]. Briefly, synaptosomal membranes isolated from cerebral cortex were incubated at 37° C. for 10 min. in 2 ml of 50 mM Tris-HCl, pH 7.4; 10 μM pargyline; 0.6 mM ascorbic acid; and 0.4 nM […]. Binding was terminated by filtering samples under reduced pressure through glass fiber (GFB) filters. The filters were washed twice with 5 ml of ice cold buffer and placed in scintillation vials with 10 ml of PCS (Amersham/Searle) scintillation fluid. Radioactivity was measured with a liquid scintillation spectrometer. Unlabeled 8-OH-DPAT at 10 μM was also included in separate samples to establish non-specific binding. Specific binding of ^3 H-8-OH-DPAT is defined as the difference of radioactivity bound in the absence and in the presence of 10 μM unlabeled 8-OH-DPAT.

Assay [2] deals with conscious spontaneous hypertensive rats (SHR). Nature of the assay: Effect on heart rate after i.v. administration to conscious SHR. The format is in vivo. Conditions: i.v., conscious SHR; for ED15: Rattus norvegicus, iv, read-out: Heart Rate ED15. On the procedure: as §1, §2, §3, §4, §5, §6, §7, §8
HR Index = ED15 for Heart Rate divided by ED25 for Blood

Where [3] appears, read: 0.25 h, 15 min. after treatment.

`CCCN(CCC)C1CCc2cccc(C#N)c2C1` (centres unmarked) [Example 8, 2-Di-n-propylamino-8-cyano-1,2,3,4-tetrahydronaphthalene]: the ED25 in assay [1] (setting [3]) came to 5.1 mg/kg; in assay [1] (0.5 h, 30 min. after treatment) it was 4.1 mg/kg. In addition, the IC50 (in general, the point on the concentration scale where inhibition reaches its midpoint) at 5HT1a receptors is 55 nM. Further, the results for the “HR Index (ED15 for Heart Rate divided by ED25 for Blood Pressure)” value in assay [2] (15 min. after treatment) and in assay [2] (30 min. after treatment) were 0.71 and 0.68, respectively. Moreover, the ED15 in assay [2] (setting [3]) worked out at 3.6 mg/kg; in assay [2] (0.5 h, 30 min. after treatment), 2.8 mg/kg.
In the case of `CCCN(CCC)C1CCc2cccc(C(N)=O)c2C1` (centres unmarked) [Example 16, 2-Di-n-propylamino-8-carboxamido-1,2,3,4-tetrahydronaphthalene], the ED25 turned out to be 4.2 mg/kg in assay [1] (setting [3]) and 5.7 mg/kg in assay [1] (0.5 h, 30 min. after treatment). In addition, the IC50 at 5HT1a receptors was 7.1 nM and 9 nM and 6.1 nM and 5.8 nM. Also, the “HR Index (ED15 for Heart Rate divided by ED25 for Blood Pressure)” value in assay [2] (15 min. after treatment) is reported as 0.35; in assay [2] (30 min. after treatment), 0.51. For the same compound, the ED15 in assay [2] (setting [3]) came out at 1.5 mg/kg; in assay [2] (0.5 h, 30 min. after treatment), 2.9 mg/kg.
